Experimental data published in patent publication US5821267A, “Amidino derivatives useful as nitric oxide synthase inhibitors” (priority 1996, dated 1998).

Assays:
[1] = target: T1, Mouse inducible nitric oxide synthase (miNOS) (Mus musculus, UniProt P29477); assay: Citrulline Assay for Nitric Oxide Synthase, mouse inducible NOS; assay type: biochemical; settings: mouse iNOS; 30 μM L-arginine, 37° C., 15 minutes
T1 construct: was prepared from an extract of LPS-treated RAW 264.7 cells and partially purified by DEAE-Sepharose chromatography; endogenous in cells; host or cells: LPS-treated RAW 264.7 cells (extract, partially purified by DEAE-Sepharose)

[2] = target: T2, Rat brain constitutive nitric oxide synthase (rnNOS) (Rattus norvegicus, UniProt P29476); assay: Citrulline Assay for Nitric Oxide Synthase, rat brain constitutive NOS; assay type: biochemical; settings: rat brain cNOS; 50 nM calmodulin, 30 μM L-arginine, 37° C., 15 minutes
T2 construct: an extract of rat cerebellum and partially purified by DEAE-Sepharose chromatography; from tissue; host or cells: rat cerebellum (extract, partially purified by DEAE-Sepharose)
Description: Nitric oxide synthase activity was measured by monitoring the conversion of [3H]-arginine to [3H]-citrulline. Mouse inducible nitric oxide synthase (miNOS) was prepared from an extract of LPS-treated RAW 264.7 cells and partially purified by DEAE-Sepharose chromatography. Rat brain constitutive nitric oxide synthase (rnNOS) was preparedfrom an extract of rat cerebellum and partially purified by DEAE-Sepharose chromatography. Enzyme and inhibitors were incubated at 37° C. for 15 minutes in a reaction volume of 100 μL with the following components added to start the reaction: 50 mM Tris (pH 7.6), 1 mg/ml bovine serum albumin, 1 mM DTT, 2 mM CaCl2, 10 μM FAD, 10 μM tetrahydrobiopterin, 30 μM L-arginine containing L-[2,3-3H]-arginine at 300 cpm/pmole and 1 mM NADPH. For constitutive NOS, 50 nM calmodulin was also added. The reaction was terminated by addition of cold stop buffer containing 10 mM EGTA, 100 mM HEPES, pH 5.5 and 1 mM citrulline. [3H]-Citrulline was separated by chromatography on Dowex 50W X-8 cation exchange resin and radioactivity determined with a liquid scintillation counter.

[3] = system: intracellular iNOS in RAW 264.7 cells; assay: Raw Cell Nitrite Assay; assay type: cell-based; settings: Mus musculus, RAW264.7, LPS-induced RAW 264.7 cells, 30 μM L-arginine, 1 h at 37° C.
Description: RAW 264.7 cells are plated to confluency on a 96-well tissue culture plate grown overnight (17 h) in the presence of LPS to induce NOS. A row of 3-6 wells were left untreated and served as controls for subtraction of nonspecific background. The media was removed from each well and the cells are washed twice with Krebs-Ringers-Hepes (25 mM, pH 7.4) with 2 mg/ml glucose. The cells are then placed on ice and incubated with 50 μL of buffer containing L-arginine (30 μM) +/- inhibitors for 1 h. The assay is initiated by warming the plate to 37° C. in a water bath for 1 h. Production of nitrite by intracellular iNOS is linear with time. To terminate the cellular assay, the plate of cells is placed on ice and the nitrite-containing buffer removed and analyzed for nitrite using a previously published fluorescent determination for nitrite. All values are the average of triplicate wells and are compared to a background-subtracted induced set of cells (100% value).

T1 sequence (P29477 whole entry): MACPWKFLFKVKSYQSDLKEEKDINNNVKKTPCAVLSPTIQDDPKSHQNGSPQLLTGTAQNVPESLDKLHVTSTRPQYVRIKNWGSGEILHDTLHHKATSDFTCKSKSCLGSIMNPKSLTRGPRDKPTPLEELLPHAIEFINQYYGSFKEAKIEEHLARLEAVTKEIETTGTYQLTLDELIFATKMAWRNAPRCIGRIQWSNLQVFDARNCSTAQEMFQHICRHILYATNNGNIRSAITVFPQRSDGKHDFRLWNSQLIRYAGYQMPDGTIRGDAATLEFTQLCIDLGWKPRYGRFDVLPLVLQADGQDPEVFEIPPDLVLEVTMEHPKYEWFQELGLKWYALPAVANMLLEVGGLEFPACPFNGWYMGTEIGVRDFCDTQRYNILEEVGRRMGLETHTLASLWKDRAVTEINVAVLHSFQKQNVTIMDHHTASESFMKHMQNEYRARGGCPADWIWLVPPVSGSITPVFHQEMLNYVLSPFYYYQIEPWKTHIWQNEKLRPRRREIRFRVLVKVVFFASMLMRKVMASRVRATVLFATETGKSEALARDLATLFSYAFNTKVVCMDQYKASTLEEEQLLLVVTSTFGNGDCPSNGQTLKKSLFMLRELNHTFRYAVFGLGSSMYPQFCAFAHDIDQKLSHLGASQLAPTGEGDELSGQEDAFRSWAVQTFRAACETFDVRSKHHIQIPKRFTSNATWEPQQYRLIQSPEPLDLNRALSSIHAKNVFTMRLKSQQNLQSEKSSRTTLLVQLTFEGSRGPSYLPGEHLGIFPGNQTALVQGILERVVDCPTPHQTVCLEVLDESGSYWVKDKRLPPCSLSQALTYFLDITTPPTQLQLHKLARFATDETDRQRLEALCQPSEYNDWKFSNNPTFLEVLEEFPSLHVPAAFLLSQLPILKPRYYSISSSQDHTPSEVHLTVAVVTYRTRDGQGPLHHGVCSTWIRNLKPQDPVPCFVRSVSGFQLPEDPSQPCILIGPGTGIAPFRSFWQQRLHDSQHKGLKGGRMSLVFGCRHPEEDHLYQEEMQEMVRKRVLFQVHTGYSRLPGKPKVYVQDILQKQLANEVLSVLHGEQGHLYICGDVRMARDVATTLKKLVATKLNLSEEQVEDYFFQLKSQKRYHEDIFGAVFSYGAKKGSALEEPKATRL

IC50 [1] [µM]	IC50 [2] [µM]	IC50 [3] [µM]	SMILES
27	31		CC(C)C(=N)N [Example 3, Isopropylcarbamidine]
1	1.3	7	N=C(N)c1cccs1 [Example 8, 2-Amidinothiophene]
2	7	60	CSCC(=N)N [Example 11]
16	44		CCC(=N)N [Example 5, Ethylcarbamidine]
2	7.3		CCCC(=N)N [Example 4, 1-Propylcarbamidine]
2.3	10	46	N=C(N)C1CC1 [Example 2, Cyclopropylcarbamidine]
3	3	158	N=C(N)c1ccco1 [Example 9, 2-Amidinofuran]
